Data: patent US10206902B2, “Mono- or di-substituted indoles as dengue viral replication inhibitors” (priority 2014, dated 2019)

Columns and labels:
in vitro = type: cell-based; settings: African green monkey, CC50
Procedure: Potential cytotoxic effects of the compounds were evaluated in uninfected Vero cells. Cells were seeded at 4×10^4 cells/well in a 96-well plate in the presence of two-, three- or five-fold serial dilutions (ranging from 50 μg/mL-0.0038 μg/mL, 50 μg/mL-0.0076 μg/mL, and 50 μg/mL-0.00013 μg/mL, respectively) of compound and incubated for 4 to 7 days. Culture medium was discarded and 100 μL 3-(4,5-dimethylthiazol-2-yl)-5-(3-carboxymethoxyphenyl)-2-(4-sulfophenyl)-2H-tetrazolium/phenazinemethosulfate (MTS/PMS; Promega, Leiden, The Netherlands) in PBS was added to each well. Following a 2-hour incubation period at 37° C., the optical density was determined at 498 nm. Cytotoxic activity was calculated using the following formula: % cell viability=100×(ODCompound/ODCC), where ODcompound and ODCC correspond to the optical density at 498 nm of the uninfected cell cultures treated with compound and that of uninfected, untreated cell cultures, respectively. The 50% cytotoxic concentration (i.e., the concentration that reduces the total cell number with 50%; CC50) was calculated using linear interpolation (Tables 7 and 8).

DENV-2 NGC-Tongalike = experiment: Tetravalent RT-qPCR assay Protocol B, serotype 2; type: cell-based; settings: Dengue virus, DENV2, Vero, 96 h
Procedure: Vero cells (4×10^4) were seeded in 96-well plates. […] Following a 2 hour incubation period, the cell monolayer was washed 3 times with assay medium to remove residual, non-adsorbed virus and cultures were further incubated for either 4 days (DENV-2 NGC-Tongalike) or 7 days (DENV-1 Djibouti strain D1/H/IMTSSA/98/606, DENV-3 strain H87 prototype, DENV-4 strain H241′) in the presence of the inhibitor. Supernatant was harvested and viral RNA load was determined by real-time quantitative RT-PCR. The 50% effective concentration (EC50), which is defined as the compound concentration that is required to inhibit viral RNA replication by 50%, was determined using logarithmic interpolation (Tables 7 and 8). RNA was isolated from 100 μL supernatant with the NucleoSpin 96 Virus kit (Filter Service, Duren, Germany) as described by the manufacturer. The sequences of the TaqMan primers (DENV-For, DENV-Rev; Table 5) and TaqMan probes (DENV-Probe Table 5) were selected from non-structural gene 3 (NS3) or NS5, of the respective flaviviruses using Primer Express software (version 2.0; Applied Biosystems, Lennik, Belgium). The TaqMan probe was fluorescently labelled with 6-carboxyfluorescein (FAM) at the 5′ end as the reporter dye, and with minor groove binder (MGB) at the 3′ end as the quencher (Table 5). One-step, quantitative RT-PCR was performed in a total volume of 25 μL, containing 13.9375 μL H2O, 6.25 μL master mix (Eurogentec, Seraing, Belgium), 0.375 μL forward primer, 0.375 μL reverse primer, 1 μL probe, 0.0625 μL reverse transcriptase (Eurogentec) and 3 μL sample. RT-PCR was performed using the ABI 7500 Fast Real-Time PCR System (Applied Biosystems, Branchburg, N.J., USA) using the following conditions: 30 min at 48° C. and 10 min at 95° C., followed by 40 cycles of 15 s at 95° C. and 1 min at 60° C. The data was analyzed using the ABI PRISM 7500 SDS software (version 1.3.1; Applied Biosystems). For absolute quantification, standard curves were generated using 10-fold dilutions of template preparations of known concentrations.

SMILES	CC50 (in vitro) [µM]	EC50 (DENV-2 NGC-Tongalike) [nM]
COc1cc(NC(C(=O)c2c[nH]c3cc(Cl)ccc23)c2ccc(F)cc2OC)cc(OCCO)c1 (single isomer, unassigned) [Compound 4A, 1-(6-chloro-1H-indol-3-yl)-2-(4-fluoro-2-methoxyphenyl)-2-((3-(2-hydroxyethoxy)-5-methoxyphenyl)amino)ethanone]	9.7	< 0.29
COc1cc(NC(C(=O)c2c[nH]c3c(F)cc(C)cc23)c2ccc(F)cc2OC)cc(OCCO)c1 (single isomer, unassigned) [Compound 12B, 2-(4-fluoro-2-methoxyphenyl)-1-(7-fluoro-5-methyl-1H-indol-3-yl)-2-((3-(2-hydroxyethoxy)-5-methoxyphenyl)amino)ethanone]	9.4	1.7
COc1cc(NC(C(=O)c2c[nH]c3cc(OC)c(F)cc23)c2ccc(F)cc2OC)cc(OCCO)c1 (single isomer, unassigned) [Compound 7A, 2-(4-fluoro-2-methoxyphenyl)-1-(5-fluoro-6-methoxy-1H-indol-3-yl)-2-((3-(2-hydroxyethoxy)-5-methoxyphenyl)amino)ethanone]	16	1.6
COc1cc(NC(C(=O)c2c[nH]c3c(Cl)c(OC)ccc23)c2ccc(F)cc2OC)cc(OCCO)c1 (single isomer, unassigned) [Compound 8A, 1-(7-chloro-6-methoxy-1H-indol-3-yl)-2-(4-fluoro-2-methoxyphenyl)-2-((3-(2-hydroxyethoxy)-5-methoxyphenyl)amino)ethanone]	9.6	< 0.24
COc1cc(NC(C(=O)c2c[nH]c3c(C)c(F)ccc23)c2ccc(F)cc2OC)cc(OCCO)c1 (single isomer, unassigned) [Compound 2B, 2-(4-fluoro-2-methoxyphenyl)-1-(6-fluoro-7-methyl-1H-indol-3-yl)-2-((3-(2-hydroxyethoxy)-5-methoxyphenyl)amino)ethanone]	9.2	0.81
COc1cc(NC(C(=O)c2c[nH]c3c(F)c(F)ccc23)c2ccc(F)cc2OC)cc(OCCO)c1 (single isomer, unassigned) [Compound 5B, 1-(6,7-difluoro-1H-indol-3-yl)-2-(4-fluoro-2-methoxyphenyl)-2-((3-(2-hydroxyethoxy)-5-methoxyphenyl)amino)ethanone]	12	0.44
COc1cc(NC(C(=O)c2c[nH]c3c(C)c(OC)ccc23)c2ccc(F)cc2OC)cc(OCCO)c1 (single isomer, unassigned) [Compound 11A, 2-(4-fluoro-2-methoxyphenyl)-2-((3-(2-hydroxyethoxy)-5-methoxyphenyl)amino)-1-(6-methoxy-7-methyl-1H-indol-3-yl)ethanone]	11	0.68
COc1cc(NC(C(=O)c2c[nH]c3cc(OC)c(C)cc23)c2ccc(F)cc2OC)cc(OCCO)c1 (single isomer, unassigned) [Compound 6A, 2-(4-fluoro-2-methoxyphenyl)-2-((3-(2-hydroxyethoxy)-5-methoxyphenyl)amino)-1-(6-methoxy-5-methyl-1H-indol-3-yl)ethanone]	9.7	< 0.35
COc1cc(NC(C(=O)c2c[nH]c3c(C)c(Cl)ccc23)c2ccc(F)cc2OC)cc(OCCO)c1 (single isomer, unassigned) [Compound 3A, 1-(6-chloro-7-methyl-1H-indol-3-yl)-2-(4-fluoro-2-methoxyphenyl)-2-((3-(2-hydroxyethoxy)-5-methoxyphenyl)amino)ethanone]	7.6	< 0.28
COc1cc(NC(C(=O)c2c[nH]c3cc(F)ccc23)c2ccc(F)cc2OC)cc(OCCO)c1 (single isomer, unassigned) [Compound 1A, 1-(6-fluoro-1H-indol-3-yl)-2-(4-fluoro-2-methoxyphenyl)-2-((3-(2-hydroxyethoxy)-5-methoxyphenyl)amino)ethanone]	13	1
COc1cc(NC(C(=O)c2c[nH]c3cc(F)c(F)cc23)c2ccc(F)cc2OC)cc(OCCO)c1 (single isomer, unassigned) [Compound 10B, 1-(5,6-difluoro-1H-indol-3-yl)-2-(4-fluoro-2-methoxy-phenyl)-2-((3-(2-hydroxyethoxy)-5-methoxyphenyl)amino)ethanone]	7.3	1.6
COc1cc(NC(C(=O)c2c[nH]c3c(C)cc(F)cc23)c2ccc(F)cc2OC)cc(OCCO)c1 (single isomer, unassigned) [Compound 9B, 2-(4-fluoro-2-methoxyphenyl)-1-(5-fluoro-7-methyl-1H-indol-3-yl)-2-((3-(2-hydroxyethoxy)-5-methoxyphenyl)amino)ethanone]	8.8	0.8
